The text below walks through data of PMC5842390, “Protection Efficacy of C5A Against Vaginal and Rectal HIV Challenges in Humanized Mice” (The Open Virology Journal, 2018).

Like-named read-outs stand apart in the source and are kept apart here. Ends that are not written are not given here.

For series [1] the following is noted: seminal plasma, cervical and vaginal fluids; cited from earlier work. An excerpt: (§1) In the absence of a safe and effective vaccine, there is an imperative demand for effective agents to reduce the 7,000 new HIV infections occurring every day. An attractive possibility is to identify the best drugs and drug combinations, delivered by optimal nBP methods such Intravaginal Rings (IVRs) for vaginal delivery and gels or enemas for rectal protection. We previously reported that C5A, a short, amphipathic, 18 amino acid (SWLRDIWDWICEVLSDFK) helical peptide, inhibits in vitro infectivity of a broad range of primary HIV isolates in various primary target cells. In this study, we ...

Series [2] relates to HIV. The conditions noted are these: cited from earlier work.
Excerpt: as §1

For series [3], the system named is simian-human immunodeficiency virus (SHIV-162P3). The conditions noted are these: vaginal application of C5A; ref 58 (b36 prints ref 57); cited from earlier work.
Excerpt: as §1, with “... || Following these studies with unformulated C5A solutions applied topically, the next goal is to formulate C5A, alone and in combination with other antiretroviral agents, into murine intravaginal rings to evaluate sustained topical delivery approaches for protection against vaginal and rectal HIV challenges. We plan on using a combination of drugs with distinct mechanisms of action.” for “...”

Series [4] concerns HIV JR-CSF. The format is in vivo, humanized BLT mice. To be noted: for Slope parameter (m) of median-effect plot: median-effect model, analogous to Hill coefficient; for EC50: sigmoidal dose-response (variable slope) model, 6.25-200 µM, n=10 per concentration. An excerpt:
Humanized BLT mice were created as described previously, by implanting 1-mm^3 pieces of human fetal liver and thymus tissues (Advanced Bioscience Resources) under the kidney capsule of 6- to 8-week-old female NSG mice (Jackson Laboratories) bred at The Scripps Research Institute (TSRI). Each cohort was produced with tissues from a single donor. CD34+ hematopoietic stem and progenitor cells (HSPC) were purified from autologous fetal liver tissue, isolated by magnetic bead selection for CD34+ cells (Miltenyi), phenotyped by flow cytometry, and cryopreserved until injection (200,000-350,000 CD34+ cells) into mice 3 weeks after fetal liver and thymus tissue implantation. Human cell population reconstitution in peripheral blood was confirmed by flow cytometry as described previously. Briefly, the degree of humanization of the BLT mice was evaluated at 20 weeks of age (10 weeks post-CD34+ HSPC injection) by analysis of percentages of human CD45+ cells and human CD45+ CD4+ CD3+ cells in peripheral blood by FACS. Mice with <65% human CD45+ cells and <70% human CD45+ CD4+ CD3+ cells were not used for HIV exposure experiments. Mice were kept at the Department of Animal Resources at TSRI in accordance with protocols approved by the TSRI Institutional Animal Care and Use Committee.
Solutions of C5A peptides were prepared in phosphate buffered saline (PBS). After verifying the reconstitution of mice with human cells, a dose ranging study was conducted to determine the EC50 of C5A for preventing vaginal and rectal HIV infection. Stocks of HIV JR-CSF were prepared as previously described and standardized by p24 ELISA. Prior to inoculation, mice were anesthetized with isoflurane. Aliquots of C5A in PBS (5 µL) were administered vaginally or rectally in decreasing concentrations (200, 100, 50, 25, 12.5 and 6.25 µM; n=10 mice per concentration). Fifteen minutes post-C5A topical administration, mice were challenged (vaginal challenge for vaginal C5A administration, rectal challenge for C5A rectal administration) with HIV.
Infection of BLT mice was analyzed by quantifying HIV RNA levels in peripheral blood (plasma) using one-step reverse transcriptase quantitative real-time PCR (ABI custom TaqMan Assays-by-Design) according to the manufacturer’s instructions. Primers were 5-[…]-3 and 5-TGCTTGATGT CCCCCCACT-3, and MGB-probe 5-FAM-[…]-Q-3, where FAM is 6-carboxyfluorescein [36-38, 40, 42, 44-47, 52-54]. The assay sensitivity was of […] 400 RNA copies per mL.
Data were analyzed using GraphPad Prism (version 7.00, GraphPad Software, Inc., La Jolla, CA). Analytic simulations of dose-response curves using the median-effect principle and mass-action law, and its combination index theorem were carried out using CompuSyn.

Series [5] concerns HSV. The conditions noted are these: Vero cells, human dendritic cells, primary genital epithelial cells in vitro, human epidermis ex vivo; cited from earlier work. The source says:
Previous studies have shown that C5A inhibits HSV infection of Vero cells, human dendritic cells and primary genital epithelial cells in vitro as well as human epidermis (epidermal sheets) ex vivo, and that it inhibits acyclovir- and ganciclovir-resistant HSV isolates. Remarkably, in an in vitro transwell assay, C5A prevented HIV transmigration by preserving the integrity of the genital epithelium that ...

The conditions of series [6]: macaques vaginally treated with repeated C5A applications; cited from earlier work. The source says: Following these studies with unformulated C5A solutions applied topically, the next goal is to formulate C5A, alone and in combination with other antiretroviral agents, into murine intravaginal rings to evaluate sustained topical delivery approaches for protection against vaginal and rectal HIV challenges. We plan on using a combination of drugs with distinct mechanisms of action.

Series [7] has as its system cervical epithelial cells. To be noted: at a concentration of 10- to 100-fold greater than that which blocks HIV infection; cited from earlier work. The source says: The short amphipathic helical peptide SWLRDIWDWICEVLSDFK called C5A, was originally identified by the Chisari lab as an active anti-hepatitis C virus (HCV) agent. The C5A amino acid sequence encompasses the region that permits the anchoring of the HCV nonstructural protein 5A (NS5A) into the ER membrane by an in-plane amphipathic alpha-helix (Fig. 1).

SWLRDIWDWICEVLSDFK [C5A]: the “Antiviral activities in genital fluids” value in series [1] is given as “maintains its antiviral activities”. In addition, the “Antiviral activity between pH 5 and 7” value in series [2] (pH 5 to 7) was “keeps is antiviral activity”. For the same sequence, the “Antiviral activity at pH 8” value in series [2] (pH 8) is given as “loses its activity”. The “Protection against a vaginal challenge of HIV” value in series [2] (topical vaginal administration of 200 µM C5A in PBS, humanized mice) is on record as 100%. Also, in series [3], the “Macaques protected from SHIV-162P3 challenge” value is listed as 89%. The “Slope parameter (m) of median-effect plot” value was 7.7 ± 1.2 in series [4] (rectal compartment) and 7.6 ± 1.2 in series [4] (vaginal compartment). The EC50 – broadly, the concentration needed to bring the measured effect to its halfway point – in series [4] (rectal dosing, read-out: EC50 for protection against rectal HIV challenge) came out at 25.7 µM; in series [4] (vaginal dosing, read-out: EC50 for protection against vaginal HIV challenge), 32.5 µM. The “Inhibition of HSV infection” value in series [5] is given as “efficiently inhibits”. Also, the “Signs of lesions or inflammation” value in series [6] is given as “no signs of lesions or inflammation”. In series [7], the “Toxicity to cervical epithelial cells” value was “not toxic”.
